Assay results as given in patent US10131652B2, “Pyrimidinyloxy benzene derivatives as herbicides” (E. I. DU PONT DE NEMOURS AND COMPANY, priority 2014, dated 2018).

Tests used:
Assay type in all cases: in vivo
[1] = test system: velvetleaf (Abutilon theophrasti); assay: Test B pre-/postemergence plant response
How it was run: (§1)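 Visual injury scores on a 0–100 scale (100 = complete control) relative to untreated plants, taken about 10 days post-treatment in greenhouse. Treatments were a directed preemergence soil spray and a postemergence spray at one- to two-leaf stage, using surfactant-containing solvent formulation.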

[2] = test system: barnyardgrass (Echinochloa crus-galli); assay: Test B pre-/postemergence plant response
How it was run: as §1

[3] = test system: large (Lg) crabgrass (Digitaria sanguinalis); assay: Test B pre-/postemergence plant response
How it was run: as §1

[4] = test system: pigweed (Amaranthus retroflexus); assay: Test B pre-/postemergence plant response
How it was run: as §1

[5] = test system: morningglory (Ipomoea spp.); assay: Test B pre-/postemergence plant response
How it was run: as §1

[6] = test system: wheat (Triticum aestivum); assay: Test B pre-/postemergence plant response
How it was run: as §1

corn (Zea mays) = assay: Test B pre-/postemergence plant response
How it was run: as §1

[7] = test system: giant foxtail (Setaria faberii); assay: Test B pre-/postemergence plant response
How it was run: as §1

[8] = test system: barnyardgrass (Echinochloa crus-galli); assay: Test C flooded paddy test plant response; settings: Flood, 250 g ai/ha; scale of 0 to 100 where 0 is no effect and 100 is complete control; 13 to 15 days
How it was run: (§2)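 Plants grown to 2-leaf stage, flooded 3 cm above soil; compounds applied directly into paddy water, depth kept throughout. Visual rating versus controls after 13 to 15 days in greenhouse, 0 (no effect) to 100 (complete control).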

[9] = test system: ducksalad (Heteranthera limosa); assay: Test C flooded paddy test plant response; settings: Flood, 250 g ai/ha; scale of 0 to 100 where 0 is no effect and 100 is complete control; 13 to 15 days
How it was run: as §2

rice (Oryza sativa) = assay: Test C flooded paddy test plant response; settings: Flood, 250 g ai/ha; scale of 0 to 100 where 0 is no effect and 100 is complete control; 13 to 15 days
How it was run: as §2

[10] = test system: small-flower umbrella sedge (Cyperus difformis); assay: Test C flooded paddy test plant response; settings: Flood, 250 g ai/ha; scale of 0 to 100 where 0 is no effect and 100 is complete control; 13 to 15 days
How it was run: as §2

[11] = 125 g ai/ha, postemergence, 0 to 100 scale, 0 no effect, 100 complete control
[12] = Postemergence, 500 g ai/ha, 0 to 100 scale (0 no effect, 100 complete control)
[13] = Preemergence, 125 g ai/ha, 0 to 100 scale where 0 is no effect and 100 is complete control
[14] = Preemergence, 500 g ai/ha, 0 to 100 scale where 0 is no effect and 100 is complete control
[15] = Postemergence, 1000 g ai/ha, 0 to 100 scale (0 no effect, 100 complete control)
[16] = Preemergence, 500 g ai/ha, 0 to 100 scale (0 no effect, 100 complete control)
[17] = Preemergence, 1000 g ai/ha, 0 to 100 scale (0 no effect, 100 complete control)

FC(F)(F)c1cc(-c2ccccc2Oc2ncc(Br)cn2)on1 [Compound 64]
35: Barnyardgrass plant response rating [8]
10: Plant response rating, Wheat [6, 12]
70: Plant response rating, Morningglory [5, 11]
100: Plant response rating, Velvetleaf [1, 11] | Plant response rating, Velvetleaf [1, 12] | Plant response rating, Barnyardgrass [2, 12] | Plant response rating, Barnyardgrass [2, 14] | Plant response rating, Crabgrass, Large [3, 13] | Plant response rating, Crabgrass, Large [3, 14] | Plant response rating, Pigweed [4, 11] | Plant response rating, Pigweed [4, 12] | Plant response rating, Pigweed [4, 13] | Plant response rating, Pigweed [4, 14] | Plant response rating, Morningglory [5, 12] | Plant response rating, Foxtail, Giant [7, 14]
95: Ducksalad plant response rating [9]
60: Plant response rating, Barnyardgrass [2, 13] | Plant response rating, Crabgrass, Large [3, 11] | Plant response rating, Morningglory [5, 14] | Plant response rating, Foxtail, Giant [7, 11]
0: Plant response rating, Morningglory [5, 13] | Plant response rating, Wheat [6, 11] | Plant response rating, Wheat [6, 13] | Plant response rating, Corn (corn (Zea mays); [13]) | Rice plant response rating (rice (Oryza sativa))
20: Plant response rating, Corn (corn (Zea mays); [11]) | Plant response rating, Corn (corn (Zea mays); [14])
90: Plant response rating, Velvetleaf [1, 14] | Plant response rating, Barnyardgrass [2, 11] | Plant response rating, Crabgrass, Large [3, 12] | Plant response rating, Foxtail, Giant [7, 13]
30: Plant response rating, Wheat [6, 14] | Plant response rating, Corn (corn (Zea mays); [12])
80: Plant response rating, Velvetleaf [1, 13] | Plant response rating, Foxtail, Giant [7, 12] | Sedge, Umbrella plant response rating [10]

Cn1nc(C(F)(F)F)cc1-c1ccccc1Oc1ncc(Cl)cn1 [Compound 29]
10: Plant response rating, Crabgrass, Large [3, 12] | Plant response rating, Crabgrass, Large [3, 13] | Plant response rating, Pigweed [4, 12] | Plant response rating, Foxtail, Giant [7, 14]
20: Plant response rating, Pigweed [4, 13]
30: Plant response rating, Crabgrass, Large [3, 14]
50: Plant response rating, Pigweed [4, 14]
0: Plant response rating, Velvetleaf [1, 11] | Plant response rating, Velvetleaf [1, 12] | Plant response rating, Velvetleaf [1, 13] | Plant response rating, Velvetleaf [1, 14] | Plant response rating, Barnyardgrass [2, 11] | Plant response rating, Barnyardgrass [2, 12] | Plant response rating, Barnyardgrass [2, 13] | Plant response rating, Barnyardgrass [2, 14] | Plant response rating, Crabgrass, Large [3, 11] | Plant response rating, Pigweed [4, 11] | Plant response rating, Morningglory [5, 11] | Plant response rating, Morningglory [5, 12] | Plant response rating, Morningglory [5, 13] | Plant response rating, Morningglory [5, 14] | Plant response rating, Wheat [6, 11] | Plant response rating, Wheat [6, 12] | Plant response rating, Wheat [6, 13] | Plant response rating, Wheat [6, 14] | Plant response rating, Corn (corn (Zea mays); [11]) | Plant response rating, Corn (corn (Zea mays); [12]) | Plant response rating, Corn (corn (Zea mays); [13]) | Plant response rating, Corn (corn (Zea mays); [14]) | Plant response rating, Foxtail, Giant [7, 11] | Plant response rating, Foxtail, Giant [7, 12] | Plant response rating, Foxtail, Giant [7, 13] | Barnyardgrass plant response rating [8] | Ducksalad plant response rating [9] | Rice plant response rating (rice (Oryza sativa)) | Sedge, Umbrella plant response rating [10]

Cn1ccc(-c2ccccc2Oc2ncc(Cl)cn2)n1 [Compound 10]
50: Plant response rating, Pigweed [4, 15]
30: Plant response rating, Pigweed [4, 16] | Plant response rating, Morningglory [5, 12]
20: Plant response rating, Velvetleaf [1, 12] | Plant response rating, Velvetleaf [1, 15] | Plant response rating, Pigweed [4, 12] | Plant response rating, Morningglory [5, 11]
0: Plant response rating, Velvetleaf [1, 11] | Plant response rating, Velvetleaf [1, 13] | Plant response rating, Velvetleaf [1, 16] | Plant response rating, Velvetleaf [1, 17] | Plant response rating, Barnyardgrass [2, 11] | Plant response rating, Barnyardgrass [2, 12] | Plant response rating, Barnyardgrass [2, 13] | Plant response rating, Barnyardgrass [2, 16] | Plant response rating, Barnyardgrass [2, 17] | Plant response rating, Crabgrass, Large [3, 11] | Plant response rating, Crabgrass, Large [3, 12] | Plant response rating, Crabgrass, Large [3, 13] | Plant response rating, Crabgrass, Large [3, 16] | Plant response rating, Pigweed [4, 11] | Plant response rating, Pigweed [4, 13] | Plant response rating, Morningglory [5, 13] | Plant response rating, Morningglory [5, 16] | Plant response rating, Morningglory [5, 17] | Plant response rating, Wheat [6, 11] | Plant response rating, Wheat [6, 12] | Plant response rating, Wheat [6, 15] | Plant response rating, Wheat [6, 13] | Plant response rating, Wheat [6, 16] | Plant response rating, Wheat [6, 17] | Plant response rating, Corn (corn (Zea mays); [11]) | Plant response rating, Corn (corn (Zea mays); [12]) | Plant response rating, Corn (corn (Zea mays); [15]) | Plant response rating, Corn (corn (Zea mays); [13]) | Plant response rating, Corn (corn (Zea mays); [16]) | Plant response rating, Corn (corn (Zea mays); [17]) | Plant response rating, Foxtail, Giant [7, 11] | Plant response rating, Foxtail, Giant [7, 12] | Plant response rating, Foxtail, Giant [7, 13] | Plant response rating, Foxtail, Giant [7, 16] | Plant response rating, Foxtail, Giant [7, 17] | Barnyardgrass plant response rating [8] | Ducksalad plant response rating [9] | Rice plant response rating (rice (Oryza sativa)) | Sedge, Umbrella plant response rating [10]
10: Plant response rating, Barnyardgrass [2, 15] | Plant response rating, Crabgrass, Large [3, 15] | Plant response rating, Crabgrass, Large [3, 17] | Plant response rating, Pigweed [4, 17] | Plant response rating, Morningglory [5, 15] | Plant response rating, Foxtail, Giant [7, 15]
